# From ChEMBL document CHEMBL1201862, “PubChem BioAssay data set” (2004)
#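 96-well plates; 48 h exposure; 5 concentrations. Endpoints by linear interpolation between flanking doses. Not reached: highest tested concentration assigned. Here, GI50 denotes the concentration required for 50% inhibition of growth.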 Calls of active or inactive are those of the source. Cut-off read from the data, not from the text of the source: active = GI50 up to about 1.1 µM and inactive = higher.
# How the values were obtained:
# Assay in all cases: NCI anticancer screen, dose series, 48 h
# 786-0 = tested on: 786-0
# A498 = tested on: A498
# A549 = tested on: A549
# ACHN = tested on: ACHN
# BT-549 = tested on: BT-549
# CAKI-1 = tested on: CAKI-1
# CCRF-CEM = tested on: CCRF-CEM
# COLO 205 = tested on: COLO 205
# DU-145 = tested on: DU-145
# EKVX = tested on: EKVX
# HCT-116 = tested on: HCT-116
# HCT-15 = tested on: HCT-15
# HL-60 = tested on: HL-60
# HOP-62 = tested on: HOP-62
# HOP-92 = tested on: HOP-92
# HT-29 = tested on: HT-29
# Hs-578T = tested on: Hs-578T
# IGROV-1 = tested on: IGROV-1
# K562 = tested on: K562
# KM12 = tested on: KM12
# LOX IMVI = tested on: LOX IMVI
# M14 = tested on: M14
# MDA-MB-231 = tested on: MDA-MB-231
# MDA-MB-435 = tested on: MDA-MB-435
# MDA-N = tested on: MDA-N
# MOLT-4 = tested on: MOLT-4
# Malme-3M = tested on: Malme-3M
# NCI-H226 = tested on: NCI-H226
# NCI-H23 = tested on: NCI-H23
# NCI-H460 = tested on: NCI-H460
# NCI-H522 = tested on: NCI-H522
# NCI/ADR-RES = tested on: NCI/ADR-RES
# OVCAR-3 = tested on: OVCAR-3
# OVCAR-5 = tested on: OVCAR-5
# OVCAR-8 = tested on: OVCAR-8
# PC-3 = tested on: PC-3
# RPMI-8226 = tested on: RPMI-8226
# RXF 393 = tested on: RXF 393
# SF-268 = tested on: SF-268
# SF-295 = tested on: SF-295
# SK-MEL-28 = tested on: SK-MEL-28
# SK-MEL-2 = tested on: SK-MEL-2
# SK-MEL-5 = tested on: SK-MEL-5
# SK-OV-3 = tested on: SK-OV-3
# SN12C = tested on: SN12C
# SNB-19 = tested on: SNB-19
# SNB-75 = tested on: SNB-75
# SW-620 = tested on: SW-620
# T47D = tested on: T47D
# TK-10 = tested on: TK-10
# U-251 = tested on: U-251
# UACC-257 = tested on: UACC-257
# UACC-62 = tested on: UACC-62
# UO-31 = tested on: UO-31
# HCC 2998 = tested on: HCC 2998
# MCF7 = tested on: MCF7
# OVCAR-4 = tested on: OVCAR-4
# SF-539 = tested on: SF-539
# SR = tested on: SR
structure (smiles),measurement,setting,value
CC(C)C[C@H]1[C@@H](OCc2ccccc2)COS(=O)N1[C@H](C)c1ccccc1 (stereo partly drawn),GI50,786-0,13.9 µM (inactive)
same,GI50,A498,22.7 µM (inactive)
same,GI50,A549,17.5 µM (inactive)
same,GI50,ACHN,19.5 µM (inactive)
same,GI50,BT-549,38.1 µM (inactive)
same,GI50,CAKI-1,20.2 µM (inactive)
same,GI50,CCRF-CEM,13.3 µM (inactive)
same,GI50,COLO 205,15.2 µM (inactive)
same,GI50,DU-145,37.8 µM (inactive)
same,GI50,EKVX,28.6 µM (inactive)
same,GI50,HCT-116,4.85 µM (inactive)
same,GI50,HCT-15,26.9 µM
same,GI50,HL-60,8.15 µM (inactive)
same,GI50,HOP-62,19.1 µM (inactive)
same,GI50,HOP-92,18.9 µM (inactive)
same,GI50,HT-29,6.95 µM (inactive)
same,GI50,Hs-578T,12 µM (inactive)
same,GI50,IGROV-1,8.75 µM (inactive)
same,GI50,K562,5.51 µM (inactive)
same,GI50,KM12,13.2 µM (inactive)
same,GI50,LOX IMVI,13.1 µM (inactive)
same,GI50,M14,7.66 µM (inactive)
same,GI50,MDA-MB-231,20.2 µM (inactive)
same,GI50,MDA-MB-435,22.4 µM (inactive)
same,GI50,MDA-N,24.9 µM (inactive)
same,GI50,MOLT-4,11.9 µM (inactive)
same,GI50,Malme-3M,12.7 µM (inactive)
same,GI50,NCI-H226,10.9 µM (inactive)
same,GI50,NCI-H23,26.1 µM (inactive)
same,GI50,NCI-H460,15.3 µM (inactive)
same,GI50,NCI-H522,4.33 µM (inactive)
same,GI50,NCI/ADR-RES,18.7 µM (inactive)
same,GI50,OVCAR-3,10.2 µM (inactive)
same,GI50,OVCAR-5,18.9 µM (inactive)
same,GI50,OVCAR-8,26.7 µM (inactive)
same,GI50,PC-3,5.79 µM (inactive)
same,GI50,RPMI-8226,5.51 µM (inactive)
same,GI50,RXF 393,13.1 µM (inactive)
same,GI50,SF-268,24.2 µM (inactive)
same,GI50,SF-295,4 µM (inactive)
same,GI50,SK-MEL-28,37.6 µM (inactive)
same,GI50,SK-MEL-2,15.7 µM (inactive)
same,GI50,SK-MEL-5,10.2 µM (inactive)
same,GI50,SK-OV-3,14.5 µM (inactive)
same,GI50,SN12C,17.5 µM (inactive)
same,GI50,SNB-19,30.3 µM (inactive)
same,GI50,SNB-75,15.6 µM (inactive)
same,GI50,SW-620,29.1 µM (inactive)
same,GI50,T47D,9.55 µM (inactive)
same,GI50,TK-10,20.6 µM (inactive)
same,GI50,U-251,13.3 µM (inactive)
same,GI50,UACC-257,16 µM (inactive)
same,GI50,UACC-62,35.1 µM (inactive)
same,GI50,UO-31,25.3 µM (inactive)
CC12CCC(=O)[C@@]1(C)CCCC2=O (stereo partly drawn),GI50,786-0,> 100 µM (inactive)
same,GI50,A549,> 100 µM (inactive)
same,GI50,ACHN,> 100 µM (inactive)
same,GI50,BT-549,> 100 µM (inactive)
same,GI50,CAKI-1,> 100 µM (inactive)
same,GI50,CCRF-CEM,> 100 µM (inactive)
same,GI50,COLO 205,> 100 µM (inactive)
same,GI50,DU-145,> 100 µM (inactive)
same,GI50,EKVX,> 100 µM (inactive)
same,GI50,HCC 2998,> 100 µM (inactive)
same,GI50,HCT-116,> 100 µM (inactive)
same,GI50,HCT-15,> 100 µM
same,GI50,HL-60,> 100 µM (inactive)
same,GI50,HOP-62,> 100 µM (inactive)
same,GI50,HT-29,> 100 µM (inactive)
same,GI50,Hs-578T,> 100 µM (inactive)
same,GI50,IGROV-1,> 100 µM (inactive)
same,GI50,K562,> 100 µM (inactive)
same,GI50,KM12,> 100 µM (inactive)
same,GI50,LOX IMVI,> 100 µM (inactive)
same,GI50,M14,> 100 µM (inactive)
same,GI50,MCF7,> 100 µM (inactive)
same,GI50,MDA-MB-231,> 100 µM (inactive)
same,GI50,MDA-N,> 100 µM (inactive)
same,GI50,MOLT-4,> 100 µM (inactive)
same,GI50,Malme-3M,> 100 µM (inactive)
same,GI50,NCI-H226,> 100 µM (inactive)
same,GI50,NCI-H23,> 100 µM (inactive)
same,GI50,NCI-H460,> 100 µM (inactive)
same,GI50,NCI-H522,> 100 µM (inactive)
same,GI50,NCI/ADR-RES,> 100 µM (inactive)
same,GI50,OVCAR-4,> 100 µM (inactive)
same,GI50,OVCAR-5,> 100 µM (inactive)
same,GI50,OVCAR-8,> 100 µM (inactive)
same,GI50,PC-3,> 100 µM (inactive)
same,GI50,RXF 393,42.2 µM (inactive)
same,GI50,SF-268,> 100 µM (inactive)
same,GI50,SF-295,> 100 µM (inactive)
same,GI50,SF-539,> 100 µM (inactive)
same,GI50,SK-MEL-28,> 100 µM (inactive)
same,GI50,SK-MEL-2,> 100 µM (inactive)
same,GI50,SK-MEL-5,> 10 µM (inactive)
same,GI50,SK-OV-3,> 100 µM (inactive)
same,GI50,SN12C,> 100 µM (inactive)
same,GI50,SNB-19,> 100 µM (inactive)
same,GI50,SNB-75,> 10 µM (inactive)
same,GI50,SR,> 100 µM (inactive)
same,GI50,SW-620,> 100 µM (inactive)
same,GI50,T47D,> 100 µM (inactive)
same,GI50,TK-10,> 100 µM (inactive)
same,GI50,U-251,> 100 µM (inactive)
same,GI50,UACC-257,> 100 µM (inactive)
same,GI50,UACC-62,> 100 µM (inactive)
same,GI50,UO-31,> 100 µM (inactive)
